According to PubChem BioAssay (NCI):
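The compound was tested at five concentrations on cells cultured in 96-well plates, with a 48-hour exposure period. GI50 marks 50% less growth. TGI marks complete inhibition of growth.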

Columns and labels:
Experiment in all cases: NCI tumour cell line growth inhibition, 48 h
[1] = system: NCI-H23 lung
[2] = system: OVCAR-8 ovarian
[3] = system: TK-10 renal
[4] = system: NCI-H522 lung
[5] = system: A498 renal
[6] = system: SR leukemia
[7] = system: UACC-62 melanoma
[8] = system: CCRF-CEM leukemia
[9] = system: ACHN renal
[10] = system: MDA-MB-435
[11] = system: HCC-2998 colon
[12] = system: HCT-116 colon
[13] = system: SK-MEL-28 melanoma
[14] = system: LOX IMVI melanoma
[15] = system: PC-3 prostate
[16] = system: OVCAR-4 ovarian
[17] = system: MDA-MB-231 breast
[18] = system: SF-268 CNS
[19] = system: HS 578T breast
[20] = system: A549 NSCLC
[21] = system: IGROV1 ovarian
[22] = system: HOP-92 NSCLC
[23] = system: K-562 leukemia
[24] = system: NCI/ADR-RES ovarian
[25] = system: UO-31 renal
[26] = system: RPMI-8226 leukemia
[27] = system: BT-549 breast
[28] = system: HCT-15 colon
[29] = system: SK-OV-3 ovarian

Cn1cc(-c2nn3cc(-c4ccncc4)nc3s2)c2cc(Cl)ccc21 gave a GI50 [1] of 5.38 µM, a TGI [1] of 25.4 µM and a GI50 [2] of 2.36 µM. The TGI [2] was 7.7 µM, the GI50 [3] was 14.4 µM and the TGI [3] was 30.9 µM. For the same compound, the GI50 [4] was 2.56 µM, the TGI [4] was 10.2 µM and the GI50 [5] was 9.38 µM. The TGI [5] was 23.7 µM, the GI50 [6] was 1.69 µM and the TGI [6] was 4.61 µM. It also gave a GI50 [7] of 11.4 µM, a TGI [7] of 31.7 µM and a GI50 [8] of 2.06 µM. The TGI [8] was 5.4 µM, the GI50 [9] was 4.78 µM and the TGI [9] was 25.3 µM. It also gave a GI50 [10] of 2.84 µM, a TGI [10] of 8.7 µM and a GI50 [11] of 3.64 µM. For the same compound, the TGI [11] was 10.1 µM, the GI50 [12] was 1.76 µM and the TGI [12] was 3.3 µM. It also gave a GI50 [13] of 2 µM, a TGI [13] of 3.77 µM and a GI50 [14] of 2.64 µM. The TGI [14] was 9.26 µM, the GI50 [15] was 2.48 µM and the TGI [15] was 7.82 µM. It also gave a GI50 [16] of 5.03 µM, a TGI [16] of 13.6 µM and a GI50 [17] of 1.58 µM. It also gave a TGI [17] of 3.24 µM, a GI50 [18] of 6.32 µM and a TGI [18] of 24.4 µM. For the same compound, the GI50 [19] was 4.73 µM, the TGI [19] was 27.2 µM and the GI50 [20] was 11.2 µM. For the same compound, the TGI [20] was 51.7 µM, the GI50 [21] was 2.12 µM and the TGI [21] was 17.2 µM. It also gave a GI50 [22] of 1.61 µM, a TGI [22] of 5.3 µM and a GI50 [23] of 2.15 µM. For the same compound, the TGI [23] was 5.3 µM, the GI50 [24] was 2.7 µM and the TGI [24] was 8.21 µM. The GI50 [25] was 4.03 µM, the TGI [25] was 22.6 µM and the GI50 [26] was 2.24 µM. It also gave a TGI [26] of 6.24 µM, a GI50 [27] of 3.39 µM and a TGI [27] of 13.3 µM. The GI50 [28] was 1.83 µM, the TGI [28] was 3.78 µM and the GI50 [29] was 12.3 µM.
